Reference: patent publication EP4803519A1, “NOVEL PRMT5 INHIBITOR AND USE THEREOF” (Shanghai Apeiron Therapeutics Company Limited, priority 2023, dated 2025)

Assays:
Format in all cases: cell-based
HCT-116 wild-type cells = test: Inhibitory activity on proliferation of HCT-116 wild-type cells (Cell-Titer Glo); conditions: Homo sapiens, 144 h, incubated 6 d, 0-10,000 nM
Outline: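 HCT-116 wild-type cells in RPMI-1640 with 10% FBS were plated overnight, then exposed to compound for 6 d at 37°C (0–10,000 nM final, 2.5-fold, 10 points, 0.2% DMSO). Viability was read by Cell-Titer Glo luminescence.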

[1] = system: LU99 MTAP overexpressing cells; test: Inhibitory activity on proliferation of LU99 MTAP overexpressing cells (Cell-Titer Glo); conditions: Homo sapiens, Lu-99, 144 h, incubated 6 d, 0-10,000 nM
Outline: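 After overnight seeding, LU99 cells overexpressing MTAP were exposed to compound at 0-10,000 nM (10 points, 2.5-fold dilutions, 0.2% DMSO) for 6 d at 37°C, 5% CO2. Viability read by Cell-Titer Glo luminescence.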

[2] = system: HCT-116 MTAP(-/-)deleted cells; test: Inhibitory activity on proliferation of HCT-116 MTAP(-/-)deleted cells (Cell-Titer Glo); conditions: Homo sapiens, 144 h, incubated 6 d, 0-1,000 nM
Outline: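 HCT-116 MTAP(-/-) cells in RPMI 1640 with 10% FBS were seeded overnight, then exposed to compound (10 points, 2.5-fold dilutions from 1,000 nM; 0.2% DMSO) for 6 d at 37 °C. Viability was read by CellTiter-Glo luminescence.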

[3] = system: LU99 MTAP(-/-)deleted cells; test: Inhibitory activity on proliferation of LU99 MTAP(-/-)deleted cells (Cell-Titer Glo); conditions: Homo sapiens, Lu-99, 144 h, incubated 6 d, 0-1,000 nM
Outline: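 Log-phase MTAP-deleted LU99 cells in 10%-FBS medium were plated overnight. Compound was then added at final 0–1,000 nM (10 points, 2.5-fold dilution from 1,000 nM) in 0.2% DMSO.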

In the case of CN(C(=O)c1cc2c(cc1C(F)(F)F)nc(N)c1cnn(C)c12)[C@@H]1COC(C)(C)c2cc(C(F)(F)F)ccc21 [Example 38, N-[(4S)-1,1-dimethyl-7-(trifluoromethyl)isochroman-4-yl] [4-amino-1-methyl-7-(trifluoromethyl)pyrazolo[4,5-c]quinolin-8-yl]-N-methylformamide], the IC50 (HCT-116 wild-type cells) is reported as 1470 nM, the IC50 [1] is reported as 2050 nM and the IC50 [2] is reported as 8.1 nM. The IC50 [3] was 15 nM.

CN(C(=O)c1ccc2nc(N)c3cnn(C)c3c2c1)C1COC(C)(C)c2nc(C(F)(F)F)ccc21 (centres unmarked) [Example 39] gave an IC50 (HCT-116 wild-type cells) of 1140 nM, an IC50 [1] of 1290 nM and an IC50 [2] of 5.2 nM. It also gave an IC50 [3] of 8.4 nM.

Compound CN(C(=O)c1cc2c3c(c(N)nc2cn1)COC3)C1COC2(CC2)c2cc(C(F)(F)F)ccc21 (centres unmarked) [Example 40, 4-Amino-N-methyl-N-(7'-(trifluoromethyl)spiro[cyclopropane-1,1'-isochroman]-4'-yl)-1,3-dihydrofuro[3,4-c][1,7]naphthyridine-8-carboxamide] has an IC50 (HCT-116 wild-type cells) of 2200 nM, an IC50 [1] of 2040 nM and an IC50 [2] of 13 nM. It also gave an IC50 [3] of 21.2 nM.

Work on CN(C(=O)c1ccc2nc(N)c3cnn(C)c3c2c1)[C@@H]1COC(C)(C)c2cc(-c3cncc(C(F)(F)F)c3)ccc21 [Example 41, (S)-4-amino-N-(1,1-dimethyl-7-(5-(trifluoromethyl)pyridin-3-yl)isochroman-4-yl)-N,1-dimethyl-1H-pyrazolo[4,3-c]quinoline-8-carboxamide] yielded an IC50 (HCT-116 wild-type cells) of 1030 nM, an IC50 [1] of 1860 nM and an IC50 [2] of 4.6 nM. For the same compound, the IC50 [3] was 6.1 nM.

CN(C(=O)c1ccc2nc(N)c3cnn(C)c3c2c1)[C@@H]1COC(C)(C)c2cc(-c3cscn3)ccc21 [Example 42, N-((4S)-1,1-dimethyl-7-(1,3-thiazol-4-yl)isochroman-4-yl)(4-amino-1-methylpyrazolo[4,5-c]quinolin-8-yl)-N-methylformamide] gave an IC50 (HCT-116 wild-type cells) of 1760 nM, an IC50 [1] of 1140 nM and an IC50 [2] of 4.4 nM. It also gave an IC50 [3] of 6.1 nM.

In the case of CN(C(=O)c1ccc2nc(N)c3cnn(C)c3c2c1)C1COC(C)(C)c2cc(C(F)(F)F)ncc21 (centres unmarked) [Example 43, (4-Amino-1-methylpyrazolo[4,5-c]quinolin-8-yl)-N-[1,1-dimethyl-7-(trifluoromethyl)(1,4-dihydro-3H-pyrano[4,5-c]pyridin-4-yl)]-N-methylformamide], the IC50 (HCT-116 wild-type cells) is reported as 2130 nM, the IC50 [1] is reported as 2570 nM and the IC50 [2] is reported as 9.4 nM. For the same compound, the IC50 [3] was 12.3 nM.

In the case of CN(C(=O)c1cc2c3c(c(N)nc2cn1)COC3)[C@@H]1COC2(CCC2)c2cc(C(F)(F)F)ccc21 [Example 44, (S)-4-amino-N-methyl-N-(7'-(trifluoromethyl)spiro[cyclobutane-1,1'-isochroman]-4'-yl)-1,3-dihydrofuro[3,4-c][1,7]naphthyridine-8-carboxamide], the IC50 (HCT-116 wild-type cells) is reported as 837 nM, the IC50 [1] is reported as 673 nM and the IC50 [2] is reported as 7.9 nM. The IC50 [3] was 12.2 nM.

Work on CN(C(=O)c1cc2c3c(c(N)nc2cn1)COC3)[C@H]1COC2(CCC2)c2cc(C(F)(F)F)ccc21 [Example 45, (R)-4-amino-N-methyl-N-(7'-(trifluoromethyl)spiro[cyclobutane-1,1'-isochroman]-4'-yl)-1,3-dihydrofuro[3,4-c][1,7]naphthyridine-8-carboxamide] yielded an IC50 (HCT-116 wild-type cells) of over 10000 nM, an IC50 [1] of over 10000 nM and an IC50 [2] of 874 nM. It also gave an IC50 [3] of 944 nM.

CN(C(=O)c1ccc2nc(N)c3cnn(C)c3c2c1)C1COC(C)(C)c2cc(-c3cccc4c3cnn4C)ccc21 (centres unmarked) [Example 46, 4-amino-N-(1,1-dimethyl-7-(1-methyl-1H-indazol-4-yl)isochroman-4-yl)-N,1-dimethyl-1H-pyrazolo[4,3-c]quinoline-8-carboxamide] showed an IC50 (HCT-116 wild-type cells) of 1100 nM, an IC50 [1] of 1050 nM and an IC50 [2] of 4.3 nM. The IC50 [3] was 7.9 nM.

CN(C(=O)c1ccc2nc(N)c3cnn(C)c3c2c1)C1COC(C)(C)c2cc(-n3cc(C(F)(F)F)cn3)ccc21 (centres unmarked) [Example 47, 4-amino-N-(1,1-dimethyl-7-(4-(trifluoromethyl)-1H-pyrazol-1-yl)isochroman-4-yl)-N,1-dimethyl-1H-pyrazolo[4,3-c]quinoline-8-carboxamide] showed an IC50 (HCT-116 wild-type cells) of 1600 nM, an IC50 [1] of 1380 nM and an IC50 [2] of 5.9 nM. For the same compound, the IC50 [3] was 7.5 nM.

In the case of CN(C(=O)c1ccc2nc(N)c3cnn(C)c3c2c1)[C@@H]1COC(C)(C)c2cc(N3CC4(COC4)C3)ccc21 [Example 49, (S)-4-amino-N-(1,1-dimethyl-7-(2-oxa-6-azaspiro[3.3]heptan-6-yl)isochroman-4-yl)-N,1-dimethyl-1H-pyrazolo[4,3-c]quinoline-8-carboxamide], the IC50 (HCT-116 wild-type cells) is reported as 3850 nM, the IC50 [1] is reported as 5890 nM and the IC50 [2] is reported as 7.9 nM. For the same compound, the IC50 [3] was 19.2 nM.

CN(C(=O)c1ccc2nc(N)c3cnn(C)c3c2c1)[C@@H]1COC(C)(C)c2nc(C(F)(F)F)ccc21 [Example 50] gave an IC50 (HCT-116 wild-type cells) of over 10000 nM, an IC50 [1] of 7400 nM and an IC50 [2] of 413 nM. For the same compound, the IC50 [3] was 525 nM.

CN(C(=O)c1ccc2nc(N)c3cnn(C)c3c2c1)[C@H]1COC(C)(C)c2nc(C(F)(F)F)ccc21 [Example 51] was tested, and the IC50 (HCT-116 wild-type cells) was 447 nM, the IC50 [1] was 711 nM and the IC50 [2] was 3.1 nM. It also gave an IC50 [3] of 4.9 nM.

Compound CN1CCN(c2ccc3c(c2)C(C)(C)OCC3N(C)C(=O)c2ccc3nc(N)c4cnn(C)c4c3c2)CC1 (centres unmarked) [Example 80] has an IC50 (HCT-116 wild-type cells) of 3850 nM, an IC50 [1] of 3660 nM and an IC50 [2] of 9.4 nM. For the same compound, the IC50 [3] was 16.8 nM.

In the case of CN(C(=O)c1ccc2nc(N)c3cnn(C)c3c2c1)[C@@H]1COC(C)(C)c2cc(N3CCNCC3)ccc21 [Example 83], the IC50 (HCT-116 wild-type cells) is reported as 10500 nM, the IC50 [1] is reported as 12700 nM and the IC50 [2] is reported as 103 nM. For the same compound, the IC50 [3] was 102 nM.

CN(C(=O)c1ccc2nc(N)c3cnn(C)c3c2c1)[C@@H]1COC2(CCC2)c2cc(C(F)(F)F)ncc21 [Example 84, N-[(4S)-7-(trifluoromethyl)spiro[1,4-dihydro-3H-pyrano[4,5-c]pyridine-1,1'-cyclobutan]-4-yl](4-amino-1-methylpyrazolo[4,5-c]quinolin-8-yl)-N-methylformamide] showed an IC50 (HCT-116 wild-type cells) of 1370 nM, an IC50 [1] of 1640 nM and an IC50 [2] of 6.7 nM. For the same compound, the IC50 [3] was 10 nM.

CN(C(=O)c1ccc2nc(N)c3cnn(C)c3c2c1)[C@@H]1COC(C)(C)c2cc(N3CCn4cncc4C3)ccc21 [Example 86, N-((4S)-7-imidazo[5,1-c]piperazin-7-yl-1,1-dimethylisochroman-4-yl)(4-amino-1-methylpyrazolo[4,5-c]quinolin-8-yl)-N-methylformamide] was tested, and the IC50 (HCT-116 wild-type cells) was 3790 nM, the IC50 [1] was 7870 nM and the IC50 [2] was 21.6 nM. For the same compound, the IC50 [3] was 31 nM.
